The subject of one assay is Matricaria inodora. Nature of the assay: Post-emergence herbicidal action, MATIN. Format: in vivo. On the set-up: key: % herbicidal action vs untreated; 100 = plants died, 0 = like control. The note with it: Dosage 80 g/ha. The essentials:
(§1)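 Greenhouse post-emergence test: weeds sown in sandy loam were sprayed once at one leaf, 2 to 3 weeks from sowing, with aqueous WP or EC preparations carrying 0.2% wetting agent. Effect is scored visually after about 3 weeks.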
As for `CCCn1nnnc1NC(=O)c1ccc(C(F)(F)F)c(CSCC)c1Br` [Example 3-383], the “herbicidal action MATIN” value came to 100.

`CCn1nnnc1NC(=O)c1ccc(C(F)(F)F)c(CS(C)(=O)=O)c1SC` [Example 2-163]: the “herbicidal action MATIN” value came out at 100.

For `CCCn1nnnc1NC(=O)c1ccc(C(F)(F)F)c(CSCC)c1Cl` [Example 3-299], the “herbicidal action MATIN” value was 100.

`CCCn1nnnc1NC(=O)c1ccc(C(F)(F)F)c(CSC)c1Br` [Example 3-380]: the “herbicidal action MATIN” value came to 100.

Turning to `CCCn1nnnc1NC(=O)c1ccc(C(F)F)c(CSC)c1Cl` [Example 3-320], the “herbicidal action MATIN” value is recorded as 100.

Take `CCn1nnnc1NC(=O)c1ccc(C(F)F)c(CSC)c1C` [Example 2-107]: the “herbicidal action MATIN” value turned out to be 90.

Consider `CCS(=O)(=O)Cc1c(C(F)(F)F)ccc(C(=O)Nc2nnnn2C)c1Cl` [Example 1-301], for which the “herbicidal action MATIN” value was 90.

`CCn1nnnc1NC(=O)c1ccc(C(F)(F)F)c(CS(C)(=O)=O)c1Br` [Example 2-382]: the “herbicidal action MATIN” value was 100.

In the case of `CCn1nnnc1NC(=O)c1ccc(C)c(CSC)c1Cl` [Example 2-287], the “herbicidal action MATIN” value is 100.

Regarding `CCSCc1c(C(F)F)ccc(C(=O)Nc2nnnn2C)c1SCC` [Example 1-191], the “herbicidal action MATIN” value amounted to 90.

The same assay, now with this note: comparative experiment, post-emergence, 5 g of a.i./ha.
Turning to `Cn1nnnc1NC(=O)c1ccc(C(F)(F)F)c(CS(C)(=O)=O)c1Cl` [Example 1-298], the “Herbicidal action against MATIN” value is recorded as 100.

The assay is the same for the next values; noted with them: post-emergence, dosage 80 g/ha.
Turning to `Cn1nnnc1NC(=O)c1ccc(C(F)(F)F)c(CS(C)(=O)=O)c1Cl` [Example 1-298], the “herbicidal action MATIN” value was 100%.

The next assay deals with Alopecurus myosuroides. The assay can be described thus: Post-emergence herbicidal action, ALOMY. Format: in vivo. Also noted: key: % herbicidal action vs untreated; 100 = plants died, 0 = like control. Particulars: Dosage 80 g/ha. The procedure, abridged: as §1
`CCCn1nnnc1NC(=O)c1ccc(C(F)(F)F)c(CSCC)c1Br` [Example 3-383]: the “herbicidal action ALOMY” value came out at 80.

On to `CCn1nnnc1NC(=O)c1ccc(C(F)(F)F)c(CS(C)(=O)=O)c1SC` [Example 2-163], for which the “herbicidal action ALOMY” value stood at 90.

As to `CCCn1nnnc1NC(=O)c1ccc(C(F)(F)F)c(CSCC)c1Cl` [Example 3-299], the “herbicidal action ALOMY” value was 80.

Take `CCCn1nnnc1NC(=O)c1ccc(C(F)(F)F)c(CSC)c1Br` [Example 3-380]: the “herbicidal action ALOMY” value was 80.

Regarding `CCCn1nnnc1NC(=O)c1ccc(C(F)F)c(CSC)c1Cl` [Example 3-320], the “herbicidal action ALOMY” value is 80.

Take `CCn1nnnc1NC(=O)c1ccc(C(F)F)c(CSC)c1C` [Example 2-107]: the “herbicidal action ALOMY” value was determined as 80.

Take `CCS(=O)(=O)Cc1c(C(F)(F)F)ccc(C(=O)Nc2nnnn2C)c1Cl` [Example 1-301]: the “herbicidal action ALOMY” value was 80.

`CCn1nnnc1NC(=O)c1ccc(C(F)(F)F)c(CS(C)(=O)=O)c1Br` [Example 2-382]: the “herbicidal action ALOMY” value is recorded as 80.

As to `CCn1nnnc1NC(=O)c1ccc(C)c(CSC)c1Cl` [Example 2-287], the “herbicidal action ALOMY” value was 100.

In the case of `CCSCc1c(C(F)F)ccc(C(=O)Nc2nnnn2C)c1SCC` [Example 1-191], the “herbicidal action ALOMY” value was 80.

The same assay, now with this note: comparative experiment, post-emergence, 5 g of a.i./ha.
Take `Cn1nnnc1NC(=O)c1ccc(C(F)(F)F)c(CS(C)(=O)=O)c1Cl` [Example 1-298]: the “Herbicidal action against ALOMY” value stood at 70.

The same assay, now with this note: post-emergence, dosage 80 g/ha.
`Cn1nnnc1NC(=O)c1ccc(C(F)(F)F)c(CS(C)(=O)=O)c1Cl` [Example 1-298]: the “herbicidal action ALOMY” value came to 100%.

The next assay relates to Polygonum convolvulus. Nature of the assay: Post-emergence herbicidal action, POLCO. Format: in vivo. The note with it: Dosage 80 g/ha. The procedure, abridged: as §1
On to `CCCn1nnnc1NC(=O)c1ccc(C(F)(F)F)c(CSCC)c1Br` [Example 3-383], for which the “herbicidal action POLCO” value was found to be 90.

Turning to `CCn1nnnc1NC(=O)c1ccc(C(F)(F)F)c(CS(C)(=O)=O)c1SC` [Example 2-163], the “herbicidal action POLCO” value was found to be 90.

As to `CCCn1nnnc1NC(=O)c1ccc(C(F)(F)F)c(CSCC)c1Cl` [Example 3-299], the “herbicidal action POLCO” value was determined as 80.

For `CCCn1nnnc1NC(=O)c1ccc(C(F)(F)F)c(CSC)c1Br` [Example 3-380], the “herbicidal action POLCO” value turned out to be 90.

`CCCn1nnnc1NC(=O)c1ccc(C(F)F)c(CSC)c1Cl` [Example 3-320]: the “herbicidal action POLCO” value stood at 90.

With `CCn1nnnc1NC(=O)c1ccc(C(F)F)c(CSC)c1C` [Example 2-107], the “herbicidal action POLCO” value came out at 90.

For `CCS(=O)(=O)Cc1c(C(F)(F)F)ccc(C(=O)Nc2nnnn2C)c1Cl` [Example 1-301], the “herbicidal action POLCO” value is 100.

In the case of `CCn1nnnc1NC(=O)c1ccc(C(F)(F)F)c(CS(C)(=O)=O)c1Br` [Example 2-382], the “herbicidal action POLCO” value is given as 80.

Consider `CCn1nnnc1NC(=O)c1ccc(C)c(CSC)c1Cl` [Example 2-287], for which the “herbicidal action POLCO” value was determined as 80.

Turning to `CCSCc1c(C(F)F)ccc(C(=O)Nc2nnnn2C)c1SCC` [Example 1-191], the “herbicidal action POLCO” value came to 90.

The assay is the same for the next values; noted with them: comparative experiment, post-emergence, 5 g of a.i./ha.
Regarding `Cn1nnnc1NC(=O)c1ccc(C(F)(F)F)c(CS(C)(=O)=O)c1Cl` [Example 1-298], the “Herbicidal action against POLCO” value amounted to 60.

The same assay, now with this note: post-emergence, dosage 80 g/ha.
As to `Cn1nnnc1NC(=O)c1ccc(C(F)(F)F)c(CS(C)(=O)=O)c1Cl` [Example 1-298], the “herbicidal action POLCO” value came to 90%.

The subject of a further assay is Setaria viridis. Nature of the assay: Post-emergence herbicidal action, SETVI. Format: in vivo. On the set-up: key: % herbicidal action vs untreated; 100 = plants died, 0 = like control. Particulars: Dosage 80 g/ha. The procedure, abridged: as §1
With `CCCn1nnnc1NC(=O)c1ccc(C(F)(F)F)c(CSCC)c1Br` [Example 3-383], the “herbicidal action SETVI” value was determined as 90.

With `CCn1nnnc1NC(=O)c1ccc(C(F)(F)F)c(CS(C)(=O)=O)c1SC` [Example 2-163], the “herbicidal action SETVI” value is listed as 90.

Turning to `CCCn1nnnc1NC(=O)c1ccc(C(F)(F)F)c(CSCC)c1Cl` [Example 3-299], the “herbicidal action SETVI” value is 90.

Take `CCCn1nnnc1NC(=O)c1ccc(C(F)(F)F)c(CSC)c1Br` [Example 3-380]: the “herbicidal action SETVI” value worked out at 90.

On to `CCCn1nnnc1NC(=O)c1ccc(C(F)F)c(CSC)c1Cl` [Example 3-320], for which the “herbicidal action SETVI” value is on record as 100.

Consider `CCn1nnnc1NC(=O)c1ccc(C(F)F)c(CSC)c1C` [Example 2-107], for which the “herbicidal action SETVI” value came to 90.

With `CCS(=O)(=O)Cc1c(C(F)(F)F)ccc(C(=O)Nc2nnnn2C)c1Cl` [Example 1-301], the “herbicidal action SETVI” value is on record as 90.

Turning to `CCn1nnnc1NC(=O)c1ccc(C(F)(F)F)c(CS(C)(=O)=O)c1Br` [Example 2-382], the “herbicidal action SETVI” value is 90.

As for `CCn1nnnc1NC(=O)c1ccc(C)c(CSC)c1Cl` [Example 2-287], the “herbicidal action SETVI” value amounted to 90.

With `CCSCc1c(C(F)F)ccc(C(=O)Nc2nnnn2C)c1SCC` [Example 1-191], the “herbicidal action SETVI” value is 100.

Staying with this assay, now noted: post-emergence, dosage 80 g/ha.
`Cn1nnnc1NC(=O)c1ccc(C(F)(F)F)c(CS(C)(=O)=O)c1Cl` [Example 1-298]: the “herbicidal action SETVI” value is on record as 100%.

In another assay the test system is Avena fatua. Nature of the assay: Post-emergence herbicidal action, AVEFA. Format: in vivo. Also noted: key: % herbicidal action vs untreated; 100 = plants died, 0 = like control. The note with it: Dosage 80 g/ha. The procedure, abridged: as §1
On to `CCCn1nnnc1NC(=O)c1ccc(C(F)(F)F)c(CSCC)c1Br` [Example 3-383], for which the “herbicidal action AVEFA” value came out at 90.

`CCn1nnnc1NC(=O)c1ccc(C(F)(F)F)c(CS(C)(=O)=O)c1SC` [Example 2-163]: the “herbicidal action AVEFA” value came out at 100.

Take `CCCn1nnnc1NC(=O)c1ccc(C(F)(F)F)c(CSCC)c1Cl` [Example 3-299]: the “herbicidal action AVEFA” value is recorded as 80.

With `CCCn1nnnc1NC(=O)c1ccc(C(F)(F)F)c(CSC)c1Br` [Example 3-380], the “herbicidal action AVEFA” value was determined as 100.

`CCCn1nnnc1NC(=O)c1ccc(C(F)F)c(CSC)c1Cl` [Example 3-320]: the “herbicidal action AVEFA” value was determined as 90.

As to `CCn1nnnc1NC(=O)c1ccc(C(F)F)c(CSC)c1C` [Example 2-107], the “herbicidal action AVEFA” value amounted to 80.

Turning to `CCS(=O)(=O)Cc1c(C(F)(F)F)ccc(C(=O)Nc2nnnn2C)c1Cl` [Example 1-301], the “herbicidal action AVEFA” value is recorded as 100.

Turning to `CCSCc1c(C(F)F)ccc(C(=O)Nc2nnnn2C)c1SCC` [Example 1-191], the “herbicidal action AVEFA” value was 80.

Still in this assay, the particulars now being: comparative experiment, post-emergence, 5 g of a.i./ha.
On to `Cn1nnnc1NC(=O)c1ccc(C(F)(F)F)c(CS(C)(=O)=O)c1Cl` [Example 1-298], for which the “Herbicidal action against AVEFA” value is given as 60.

Staying with this assay, now noted: post-emergence, dosage 80 g/ha.
Regarding `Cn1nnnc1NC(=O)c1ccc(C(F)(F)F)c(CS(C)(=O)=O)c1Cl` [Example 1-298], the “herbicidal action AVEFA” value amounted to 100%.

In the next assay the test system is Amaranthus retroflexus. The assay can be described thus: Pre-emergence herbicidal action, AMARE. Format: in vivo. Particulars: dosage 320 g/ha, scored visually after 3 weeks vs untreated controls (100% = plants have died). The essentials:
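Seeds sown in sandy loam in pots and covered with soil; compounds formulated as WP or EC were sprayed onto the soil surface as aqueous suspension/emulsion at 600 to 800 l/ha water with 0.2% wetting agent. Greenhouse growth; visual damage scored after 3 weeks versus untreated controls (100% = plants died, 0% = like control).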
On to `CCCn1nnnc1NC(=O)c1ccc(C(F)(F)F)c(CSCC)c1Br` [Example 3-383], for which the “herbicidal activity AMARE” value was 100%.

Consider `CCn1nnnc1NC(=O)c1ccc(C(F)(F)F)c(CS(C)(=O)=O)c1SC` [Example 2-163], for which the “herbicidal activity AMARE” value was determined as 100%.

Regarding `CCCn1nnnc1NC(=O)c1ccc(C(F)(F)F)c(CSCC)c1Cl` [Example 3-299], the “herbicidal activity AMARE” value is 100%.

Regarding `CCCn1nnnc1NC(=O)c1ccc(C(F)(F)F)c(CSC)c1Br` [Example 3-380], the “herbicidal activity AMARE” value is reported as 100%.

Turning to `CCCn1nnnc1NC(=O)c1ccc(C(F)F)c(CSC)c1Cl` [Example 3-320], the “herbicidal activity AMARE” value is on record as 100%.

With `CCn1nnnc1NC(=O)c1ccc(C(F)F)c(CSC)c1C` [Example 2-107], the “herbicidal activity AMARE” value is recorded as 100%.

Consider `CCS(=O)(=O)Cc1c(C(F)(F)F)ccc(C(=O)Nc2nnnn2C)c1Cl` [Example 1-301], for which the “herbicidal activity AMARE” value was found to be 100%.

As to `CCn1nnnc1NC(=O)c1ccc(C(F)(F)F)c(CS(C)(=O)=O)c1Br` [Example 2-382], the “herbicidal activity AMARE” value was determined as 100%.

Consider `CCn1nnnc1NC(=O)c1ccc(C)c(CSC)c1Cl` [Example 2-287], for which the “herbicidal activity AMARE” value stood at 100%.

`Cn1nnnc1NC(=O)c1ccc(C(F)(F)F)c(CS(C)(=O)=O)c1Cl` [Example 1-298]: the “herbicidal activity AMARE” value came out at 100%.

With `CCSCc1c(C(F)F)ccc(C(=O)Nc2nnnn2C)c1SCC` [Example 1-191], the “herbicidal activity AMARE” value is 100%.
